BindingDB's records for doi:10.1039/c5md00579e (The Scripps Research Institute, 2016)

experiment: Inhibition of MCT1 in human Raji cells assessed as inhibition of cell proliferation after 96 hrs by MTT assay

SMILES | EC50 [nM]
CC(C)Cc1nn(C)c(=O)c2c(SCCCO)n(Cc3cnc(NCCCCCN)c4ccccc34)cc12 | 0.8
CC(C)Cc1nn(C)c(=O)c2c(SCCCO)n(Cc3cc(NCCCCCNC(=O)[C@@H](N)CCC(N)=O)nc4ccccc34)cc12 | 0.8
CC(C)Cc1nn(C)c(=O)c2c(SCCCO)n(Cc3ccc(C#CCCCOc4ccc(C[C@H](N)C(=O)O)cc4)c4ccccc34)cc12 | 0.8
CC(C)Cc1nn(C)c(=O)c2c(SCCCO)n(Cc3ccnc(NCCCCCNC(=O)[C@@H](N)CCC(N)=O)c3)cc12 | 500
CC(C)Cc1nn(C)c(=O)c2c(SCCCO)n(Cc3ccc(NCCCCCNC(=O)[C@@H](N)CCC(N)=O)nc3)cc12 | 100
CC(C)Cc1nn(C)c(=O)c2c(SCCCO)n(Cc3cc(Cl)nc4ccccc34)cc12 | 60
CC(C)Cc1nn(C)c(=O)c2c(SCCCO)n(Cc3ccnc(Cl)c3)cc12 | 1000
CC(C)Cc1nn(C)c(=O)c2c(SCCCO)n(Cc3cnc(NCCCCCNC(=O)[C@@H](N)CCC(N)=O)c4ccccc34)cc12 | 0.16
CC(C)Cc1nn(C)c(=O)c2c(SCCCO)n(Cc3cnc(Cl)c4ccccc34)cc12 | 55
CC(C)Cc1nn(C)c(=O)c2c(SCCCO)n(Cc3ccc(C#CCCCNC(=O)[C@@H](N)CCC(N)=O)c4ccccc34)cc12 | 4
CC(C)Cc1nn(C)c(=O)c2c(SCCCO)n(Cc3cc(NCCCCCN)nc4ccccc34)cc12 | 24
CC(C)Cc1nn(C)c(=O)c2c(SCCCO)n(Cc3ccc(NCCCCCN)nc3)cc12 | 420
CC(C)Cc1nn(C)c(=O)c2c(SCCCO)n(Cc3ccc(Cl)nc3)cc12 | 690
CC(C)Cc1nn(C)c(=O)c2c(SCCCO)n(Cc3ccc(Br)c4ccccc34)cc12 | 11
CC(C)Cc1nn(C)c(=O)c2c(SCCCO)n(Cc3ccnc(NCCCCCN)c3)cc12 | 520
